Laboratory results: patent US8980909B2, “HDAC inhibiting derivatives of camptothecin” (Crystal Biopharmaceutical LLC, priority 2011, dated 2015)

Key:
[1] = target: HDAC-1 (Homo sapiens, UniProt Q13547); assay: Inhibition of histone deacetylase enzymatic activity (Fluor-de-Lys), HDAC-1; format: biochemical; conditions: HDAC subtype HDAC-1
Description: The following assay protocol was used to assay the compounds of the invention against the HDAC enzymes (HDAC-1, 2, 3, 4, 5, 6, 7, 8, 9, 10, and 11.). […] The enzyme stock solution was 4 μg/mL in buffer. The compounds were pre-incubated (2 μl in DMSO diluted to […] in buffer for transfer to assay plate) with enzyme (20 μl of 4 μg/ml) for 10 minutes at room temperature (35 μl pre-incubation volume). The mixture was pre-incubated for 5 minutes at room temperature. The reaction was started by bringing the temperature to 37° C. and adding 15 μl substrate. Total reaction volume was 50 μl. […] Such assays, carried out with a range of doses of test compounds, allowed the determination of an approximate IC50 value.

[2] = tested on: SNB-19; assay: In vitro anti-proliferation assay (ATPlite), SNB-19; format: cell-based; conditions: for IC50: Homo sapiens, CNS Cancer, SNB-19, 72 hours
Description: (§1) Cell antiproliferation was assayed by PerkinElmer ATPlite™ Luminescence Assay System. The cancer cell lines were plated at 10 k cells per well in Costar 96-well plates with different concentration of compounds for 72 hours with […]. After that, one lyophilized substrate solution vial was reconstituted by adding 5 mL of substrate buffer solution and was agitated gently until the solution is homogeneous. 50 μL of mammalian cell lysis solution was added to 100 μL of cell suspension per well of a microplate and the plate was shaken for five minutes in an orbital shaker at 700 rpm. This procedure will lyses the cells and stabilizes the ATP. Next, 50 μL substrate solution was added to the wells and microplate was shaken for five minutes in an orbital shaker at 700 rpm. Finally, the luminescence was measured by a PerkinElmer TopCount® Microplate Scintillation Counter. Such assays, carried out with a range of doses of test compounds, allow the determination of the cellular anti-antiproliferative IC50 of the compounds of the present invention.
(§2) The cellular antiproliferative assay were conducted side-by-side for Irinotecan (a FDA approved semisynthetic Camptothecin), and CY-700 (the first-in-class dual-functional semisynthetic Camptothecin/HDAC inhibitor), in 53 different cancer cell lines of breast cancer, renal cancer, non-small cell lung cancer, colon cancer, leukemia, multiple myeloma, ovarian cancer, prostate cancer, melanoma, and CNS cancer.

[3] = tested on: CAKI-1; assay: In vitro anti-proliferation assay (ATPlite), CAKI-1; format: cell-based; conditions: for IC50: Homo sapiens, Renal Cancer, CAKI-1, 72 hours
Description: as §1, §2

[4] = tested on: RXF 393; assay: In vitro anti-proliferation assay (ATPlite), RXF 393; format: cell-based; conditions: for IC50: Homo sapiens, Renal Cancer, RXF 393, 72 hours
Description: as §1, §2

[5] = tested on: MCF7; assay: In vitro anti-proliferation assay (ATPlite), MCF7; format: cell-based; conditions: for IC50: Homo sapiens, Breast Cancer, MCF7, 72 hours
Description: as §1, §2

[6] = tested on: T-47D; assay: In vitro anti-proliferation assay (ATPlite), T-47D; format: cell-based; conditions: for IC50: Homo sapiens, T47D, Breast Cancer, T-47D, 72 hours
Description: as §1, §2

[7] = tested on: CCRF-CEM; assay: In vitro anti-proliferation assay (ATPlite), CCRF-CEM; format: cell-based; conditions: for IC50: Homo sapiens, Leukemia, CCRF-CEM, 72 hours
Description: as §1, §2

[8] = tested on: SF-539; assay: In vitro anti-proliferation assay (ATPlite), SF-539; format: cell-based; conditions: for IC50: Homo sapiens, CNS Cancer, SF-539, 72 hours
Description: as §1, §2

[9] = tested on: SK-MEL-5; assay: In vitro anti-proliferation assay (ATPlite), SK-MEL-5; format: cell-based; conditions: for IC50: Homo sapiens, Melanoma, SK-MEL-5, 72 hours
Description: as §1, §2

[10] = tested on: NCI/ADR-RES; assay: In vitro anti-proliferation assay (ATPlite), NCI/ADR-RES; format: cell-based; conditions: for IC50: Homo sapiens, Ovarian Cancer, NCI/ADR-RES, 72 hours
Description: as §1, §2

[11] = tested on: SF-268; assay: In vitro anti-proliferation assay (ATPlite), SF-268; format: cell-based; conditions: for IC50: Homo sapiens, CNS Cancer, SF-268, 72 hours
Description: as §1, §2

[12] = tested on: NCI-H226; assay: In vitro anti-proliferation assay (ATPlite), NCI-H226; format: cell-based; conditions: for IC50: Homo sapiens, NSCLC, NCI-H226, 72 hours
Description: as §1, §2

[13] = tested on: BT-549; assay: In vitro anti-proliferation assay (ATPlite), BT-549; format: cell-based; conditions: for IC50: Homo sapiens, Breast Cancer, BT-549, 72 hours
Description: as §1, §2

[14] = tested on: SNB-75; assay: In vitro anti-proliferation assay (ATPlite), SNB-75; format: cell-based; conditions: for IC50: Homo sapiens, CNS Cancer, SNB-75, 72 hours
Description: as §1, §2

[15] = tested on: OVCAR-8; assay: In vitro anti-proliferation assay (ATPlite), OVCAR-8; format: cell-based; conditions: for IC50: Homo sapiens, Ovarian Cancer, OVCAR-8, 72 hours
Description: as §1, §2

[16] = tested on: U251; assay: In vitro anti-proliferation assay (ATPlite), U251; format: cell-based; conditions: for IC50: Homo sapiens, U-251, CNS Cancer, U251, 72 hours
Description: as §1, §2

[17] = tested on: LOX IMVI; assay: In vitro anti-proliferation assay (ATPlite), LOX IMVI; format: cell-based; conditions: for IC50: Homo sapiens, Melanoma, LOX IMVI, 72 hours
Description: as §1, §2

[18] = tested on: 53 different cancer cell lines; assay: In vitro anti-proliferation assay (ATPlite), panel of 53 cancer cell lines; format: cell-based; conditions: among 53 cancer cell lines, side-by-side with Irinotecan
Description: as §1, with “invention. […]” for “invention.”

[19] = Solubility (comparison in words); format: physicochemical
[20] = In vitro activities (comparison in words, test not specified)

Sequence of HDAC-1 (Q13547 whole entry): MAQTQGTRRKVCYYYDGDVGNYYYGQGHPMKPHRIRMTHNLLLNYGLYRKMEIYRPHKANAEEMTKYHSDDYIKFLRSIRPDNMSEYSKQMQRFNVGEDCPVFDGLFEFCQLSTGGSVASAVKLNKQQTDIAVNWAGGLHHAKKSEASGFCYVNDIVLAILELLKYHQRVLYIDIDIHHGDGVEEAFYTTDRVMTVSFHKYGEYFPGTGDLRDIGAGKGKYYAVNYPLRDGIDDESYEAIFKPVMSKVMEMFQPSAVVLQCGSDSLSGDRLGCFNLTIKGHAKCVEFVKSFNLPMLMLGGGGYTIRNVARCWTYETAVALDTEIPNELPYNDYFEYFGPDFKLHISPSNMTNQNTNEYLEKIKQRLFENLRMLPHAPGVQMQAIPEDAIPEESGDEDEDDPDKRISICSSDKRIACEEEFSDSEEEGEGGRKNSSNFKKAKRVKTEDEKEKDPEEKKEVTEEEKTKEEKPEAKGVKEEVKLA

Row | SMILES | IC50 [2] | IC50 [3] | IC50 [4] | IC50 [5] | IC50 [6] | IC50 [7] | IC50 [8] | IC50 [9] | IC50 [10] | IC50 [11] | IC50 [12] | IC50 [13] | IC50 [14] | IC50 [15] | IC50 [16] | IC50 [17] | also measured
1 | CCc1c2c(nc3ccc(OCCCCCCC(=O)NO)cc13)-c1cc3c(c(=O)n1C2)COC(=O)[C@]3(O)CC [CY-700] | 1.1 µM | 0.7 µM | 2.3 µM | 0.5 µM | 2.1 µM | 0.4 µM | 0.6 µM | 1.3 µM | 5.1 µM | 0.5 µM | 1.2 µM | 2.6 µM | 2.3 µM | 2.7 µM | 0.7 µM | 0.7 µM | IC50 ([1]; Fluor-de-Lys substrate, approximate IC50): 0.019 µM; Ratio ([2]; Irinotecan IC50 / CY-700 IC50, SNB-19): 22.0; Ratio ([3]; Irinotecan IC50 / CY-700 IC50, CAKI-1): 15.3; Ratio ([4]; Irinotecan IC50 / CY-700 IC50, RXF 393): 14.7; Ratio ([5]; Irinotecan IC50 / CY-700 IC50, MCF7): 12.1; Ratio ([6]; Irinotecan IC50 / CY-700 IC50, T-47D): 11.7; Ratio ([7]; Irinotecan IC50 / CY-700 IC50, CCRF-CEM): 9.7; Ratio ([8]; Irinotecan IC50 / CY-700 IC50, SF-539): 8.9; Ratio ([9]; Irinotecan IC50 / CY-700 IC50, SK-MEL-5): 8.6; Ratio ([10]; Irinotecan IC50 / CY-700 IC50, NCI/ADR-RES): 8.2; Ratio ([11]; Irinotecan IC50 / CY-700 IC50, SF-268): 7.4; Ratio ([12]; Irinotecan IC50 / CY-700 IC50, NCI-H226): 7.2; Ratio ([13]; Irinotecan IC50 / CY-700 IC50, BT-549): 7.0; Ratio ([14]; Irinotecan IC50 / CY-700 IC50, SNB-75): 6.9; Ratio ([15]; Irinotecan IC50 / CY-700 IC50, OVCAR-8): 6.4; Ratio ([16]; Irinotecan IC50 / CY-700 IC50, U251): 5.5; Ratio ([17]; Irinotecan IC50 / CY-700 IC50, LOX IMVI): 5.2; number of cancer cell lines with better in vitro potency than Irinotecan [18]: 47
2 | CC[C@@]1(O)C(=O)OCc2c1cc1n(c2=O)Cc2cc3c(CN(C)C)c(OC(=O)N4CCN(c5ncc(C(=O)NO)cn5)CC4)ccc3nc2-1 [CY-705] | – | – | – | – | – | – | – | – | – | – | – | – | – | – | – | – | solubility as compared to CY-700 [19]: significantly better solubility; in vitro activities as compared to CY-700 [20]: comparable in vitro activities
3 | CCc1c2c(nc3ccc(OC(=O)N4CCC(N5CCCCC5)CC4)cc13)-c1cc3c(c(=O)n1C2)COC(=O)[C@]3(O)CC [Irinotecan, reference compound] | 24.1 µM | 10.1 µM | 33.6 µM | 6.1 µM | 24.4 µM | 3.5 µM | 5 µM | 11.4 µM | 42.2 µM | 3.9 µM | 8.5 µM | 18.5 µM | 15.9 µM | 17.2 µM | 4.1 µM | 3.5 µM | HDAC-1 IC50 (result in words) ([1]; unit not given): No activity
